The values that follow come from patent publication US7422793B2, “Non-toxic corrosion-protection rinses and seals based on rare earth elements” (University of Dayton, priority 2002, dated 2008).

Data set [1] is described as follows: pH change on placing the compound into deionized water of pH 7. The class given is physicochemical. The note with it: simple laboratory experiment. The text has this:
A simple laboratory experiment confirms this effect. […] However, if icosahedral Ce(NO3)6^2− (note that this ion contains no hydroxide) is placed into deionized water of pH 7, a quite remarkable pH drop to −1 can be observed. The released tetravalent cerium ions will scavenge virtually all of the available OH^− ions in solution (possibly even degrading H2O itself to obtain […]), resulting in this dramatic pH drop.

For data set [2] the following is noted: cited from earlier work; for oxidation-reduction potential: in acid solution, couple to the trivalent ion; for calculated redox potential: in acidic solution, Nugent et al. 1971.
For data set [3] the following is noted: pH 7; cited from earlier work.

`O=[N+]([O-])O.O=[N+]([O-])O.O=[N+]([O-])O.O=[N+]([O-])O.O=[N+]([O-])O.O=[N+]([O-])O.[Ce]` [Ce(NO3)6^2−, hexanitratocerate (IV)]: the “pH after placing into deionized water of pH 7” value in data set [1] is on record as −1. Same read-out and setting: as for `[Ce+4].[OH-].[OH-].[OH-].[OH-]` [Ce(OH)4, ceric hydroxide, reference compound], the entry is “only a minor pH change”. As for `[Ce+4]` [Ce^+4, tetravalent cerium ion], the oxidation-reduction potential result in data set [2] is “+1.72 V”. Consider `[Pr+4]` [Pr^+4, tetravalent praseodymium ion], for which the calculated redox potential result in data set [2] is “+3.2 V”. On to `[Tb+4]` [Tb^+4, tetravalent terbium ion], for which the calculated redox potential result in data set [2] is listed as “+3.2 V”. For the compound Silver (I) fluorogallate, the “Solubility in Water” value in data set [3] was 1 × 10^0 mole/L.

Regarding Sodium perborate, the “Solubility in Water” value in data set [3] was 0.17 mol/L.

In the case of Sodium tungstate, the “Solubility in Water” value in data set [3] is 249 mol/L. As to Strontium bromate, the “Solubility in Water” value in data set [3] is 0.91 mol/L. Turning to Strontium nitrite, the “Solubility in Water” value in data set [3] is reported as 3.8 × 10^0 mole/L. For the compound Tin (IV) fluoride, the “Solubility in Water” value in data set [3] is 1 × 10^0 mole/L. With Vanadium pentoxide, in data set [3], the “Solubility in Water” value was 0.044 mol/L. Turning to Zinc nitrite, in data set [3], the “Solubility in Water” value was 1 × 10^0 mole/L. As for “hexavalent chromium [Cr^+6, reference compound]”, the oxidation-reduction potential entry in data set [2] is “+1.36 V”.
